PubChem BioAssay (NCI)
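Growth conditions: 96-well plates. Treatment: test compound, 48 hours, 5 concentrations. Analysis: linear interpolation between bracketing concentrations; unreached endpoints set to highest concentration. At the TGI there is no net growth.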

Columns and labels:
Experiment in all cases: NCI-60 cell line screen, 48 h
786-0 renal = tested on: 786-0 renal
A498 renal = tested on: A498 renal
A549 NSCLC = tested on: A549 NSCLC
ACHN renal = tested on: ACHN renal
BT-549 breast = tested on: BT-549 breast
CAKI-1 renal = tested on: CAKI-1 renal
CCRF-CEM leukemia = tested on: CCRF-CEM leukemia
COLO 205 colon = tested on: COLO 205 colon
DU-145 prostate = tested on: DU-145 prostate
EKVX NSCLC = tested on: EKVX NSCLC
HCC-2998 colon = tested on: HCC-2998 colon
HCT-116 colon = tested on: HCT-116 colon
HCT-15 colon = tested on: HCT-15 colon
HL-60(TB) leukemia = tested on: HL-60(TB) leukemia
HOP-62 NSCLC = tested on: HOP-62 NSCLC
HOP-92 NSCLC = tested on: HOP-92 NSCLC
HS 578T breast = tested on: HS 578T breast
HT29 colon = tested on: HT29 colon
IGROV1 ovarian = tested on: IGROV1 ovarian
K-562 leukemia = tested on: K-562 leukemia
KM12 colon = tested on: KM12 colon
LOX IMVI melanoma = tested on: LOX IMVI melanoma
M14 melanoma = tested on: M14 melanoma
MALME-3M melanoma = tested on: MALME-3M melanoma
MCF7 breast = tested on: MCF7 breast
MDA-MB-435 = tested on: MDA-MB-435
MDA-N = tested on: MDA-N
MOLT-4 leukemia = tested on: MOLT-4 leukemia
NCI-H23 lung = tested on: NCI-H23 lung
NCI-H460 lung = tested on: NCI-H460 lung
NCI-H522 lung = tested on: NCI-H522 lung
NCI/ADR-RES ovarian = tested on: NCI/ADR-RES ovarian
OVCAR-3 ovarian = tested on: OVCAR-3 ovarian
OVCAR-4 ovarian = tested on: OVCAR-4 ovarian
OVCAR-5 ovarian = tested on: OVCAR-5 ovarian
OVCAR-8 ovarian = tested on: OVCAR-8 ovarian
RPMI-8226 leukemia = tested on: RPMI-8226 leukemia
RXF 393 renal = tested on: RXF 393 renal
SF-268 CNS = tested on: SF-268 CNS
SF-295 CNS = tested on: SF-295 CNS
SF-539 CNS = tested on: SF-539 CNS
SK-MEL-28 melanoma = tested on: SK-MEL-28 melanoma
SK-MEL-5 melanoma = tested on: SK-MEL-5 melanoma
SK-OV-3 ovarian = tested on: SK-OV-3 ovarian
SN12C renal = tested on: SN12C renal
SNB-19 CNS = tested on: SNB-19 CNS
SNB-75 CNS = tested on: SNB-75 CNS
SR leukemia = tested on: SR leukemia
SW-620 colon = tested on: SW-620 colon
TK-10 renal = tested on: TK-10 renal
UACC-257 melanoma = tested on: UACC-257 melanoma
UACC-62 melanoma = tested on: UACC-62 melanoma
UO-31 renal = tested on: UO-31 renal
PC-3 prostate = tested on: PC-3 prostate
T-47D breast = tested on: T-47D breast
MDA-MB-231 breast = tested on: MDA-MB-231 breast
NCI-H226 lung = tested on: NCI-H226 lung
SK-MEL-2 melanoma = tested on: SK-MEL-2 melanoma
U251 CNS = tested on: U251 CNS

## CCOC(=O)/C(=C\NCC(O)c1ccccc1)c1nc2ccccc2[nH]1 (stereo unspecified)
786-0 renal
  TGI: > 100 µM
A498 renal
  TGI: 64.1 µM
A549 NSCLC
  TGI: > 100 µM
ACHN renal
  TGI: 28.8 µM
BT-549 breast
  TGI: 98.7 µM
CAKI-1 renal
  TGI: > 100 µM
CCRF-CEM leukemia
  TGI: 33.3 µM
COLO 205 colon
  TGI: 49.8 µM
DU-145 prostate
  TGI: > 100 µM
EKVX NSCLC
  TGI: 91.5 µM
HCC-2998 colon
  TGI: 42.2 µM
HCT-116 colon
  TGI: 86.3 µM
HCT-15 colon
  TGI: 74.3 µM
HL-60(TB) leukemia
  TGI: 37.1 µM
HOP-62 NSCLC
  TGI: > 100 µM
HOP-92 NSCLC
  TGI: 65.5 µM
HS 578T breast
  TGI: 39.5 µM
HT29 colon
  TGI: 56.7 µM
IGROV1 ovarian
  TGI: 57.4 µM
K-562 leukemia
  TGI: 59.6 µM
KM12 colon
  TGI: 67.9 µM
LOX IMVI melanoma
  TGI: 37.7 µM
M14 melanoma
  TGI: 93.5 µM
MALME-3M melanoma
  TGI: 52 µM
MCF7 breast
  TGI: 69 µM
MDA-MB-435
  TGI: 51.8 µM
MDA-N
  TGI: 82.7 µM
MOLT-4 leukemia
  TGI: 34.3 µM
NCI-H23 lung
  TGI: 59.6 µM
NCI-H460 lung
  TGI: 50.5 µM
NCI-H522 lung
  TGI: 49 µM
NCI/ADR-RES ovarian
  TGI: 67.9 µM
OVCAR-3 ovarian
  TGI: > 100 µM
OVCAR-4 ovarian
  TGI: 75.5 µM
OVCAR-5 ovarian
  TGI: 83.8 µM
OVCAR-8 ovarian
  TGI: 69.9 µM
RPMI-8226 leukemia
  TGI: 29.4 µM
RXF 393 renal
  TGI: > 100 µM
SF-268 CNS
  TGI: 40.5 µM
SF-295 CNS
  TGI: 67 µM
SF-539 CNS
  TGI: 47.8 µM
SK-MEL-28 melanoma
  TGI: 39.6 µM
SK-MEL-5 melanoma
  TGI: 22.9 µM
SK-OV-3 ovarian
  TGI: > 100 µM
SN12C renal
  TGI: > 100 µM
SNB-19 CNS
  TGI: > 100 µM
SNB-75 CNS
  TGI: 58.2 µM
SR leukemia
  TGI: 42.7 µM
SW-620 colon
  TGI: > 100 µM
TK-10 renal
  TGI: > 100 µM
UACC-257 melanoma
  TGI: 42.5 µM
UACC-62 melanoma
  TGI: 34.8 µM
UO-31 renal
  TGI: 94.4 µM

## COc1ccc(C2=C(OC(=O)N(C)C)c3cccn3-c3cc(C(F)(F)F)ccc3S2)cc1
786-0 renal
  TGI: > 10 µM
A549 NSCLC
  TGI: > 10 µM
CAKI-1 renal
  TGI: > 10 µM
CCRF-CEM leukemia
  TGI: > 10 µM
COLO 205 colon
  TGI: > 10 µM
DU-145 prostate
  TGI: > 10 µM
EKVX NSCLC
  TGI: > 10 µM
HCC-2998 colon
  TGI: > 10 µM
HCT-15 colon
  TGI: > 10 µM
HL-60(TB) leukemia
  TGI: > 10 µM
HOP-62 NSCLC
  TGI: > 10 µM
HT29 colon
  TGI: > 10 µM
IGROV1 ovarian
  TGI: > 10 µM
K-562 leukemia
  TGI: > 10 µM
KM12 colon
  TGI: > 10 µM
LOX IMVI melanoma
  TGI: > 10 µM
M14 melanoma
  TGI: > 10 µM
MALME-3M melanoma
  TGI: > 10 µM
MCF7 breast
  TGI: > 10 µM
MDA-N
  TGI: > 10 µM
MOLT-4 leukemia
  TGI: > 10 µM
NCI-H23 lung
  TGI: > 10 µM
OVCAR-8 ovarian
  TGI: > 10 µM
PC-3 prostate
  TGI: > 10 µM
RPMI-8226 leukemia
  TGI: > 10 µM
SF-268 CNS
  TGI: > 10 µM
SF-295 CNS
  TGI: > 10 µM
SK-MEL-28 melanoma
  TGI: > 10 µM
SK-MEL-5 melanoma
  TGI: > 10 µM
SK-OV-3 ovarian
  TGI: > 10 µM
SN12C renal
  TGI: > 10 µM
SNB-75 CNS
  TGI: > 10 µM
SR leukemia
  TGI: > 10 µM
SW-620 colon
  TGI: > 10 µM
T-47D breast
  TGI: > 10 µM
TK-10 renal
  TGI: > 10 µM
UACC-257 melanoma
  TGI: > 10 µM
UACC-62 melanoma
  TGI: > 10 µM

## COC1C(O)CC(OC2C(C)OC(Oc3cc(O)c4c(O)c5c(cc4c3)C[C@@H]([C@H](OC)C(=O)[C@@H](O)[C@@H](C)O)[C@H](OC3CC(OC4CC(OC6CC(C)(O)C(O)C(C)O6)C(O)C(C)O4)C(O)C(C)O3)C5=O)CC2OC(C)=O)OC1C (stereo partly specified)
786-0 renal
  TGI: > 100 µM
A498 renal
  TGI: > 100 µM
A549 NSCLC
  TGI: > 100 µM
ACHN renal
  TGI: > 100 µM
BT-549 breast
  TGI: > 100 µM
CAKI-1 renal
  TGI: > 100 µM
CCRF-CEM leukemia
  TGI: > 100 µM
COLO 205 colon
  TGI: > 100 µM
DU-145 prostate
  TGI: > 100 µM
EKVX NSCLC
  TGI: > 100 µM
HCC-2998 colon
  TGI: > 100 µM
HCT-116 colon
  TGI: > 100 µM
HCT-15 colon
  TGI: > 100 µM
HL-60(TB) leukemia
  TGI: > 100 µM
HOP-62 NSCLC
  TGI: > 100 µM
HS 578T breast
  TGI: > 100 µM
HT29 colon
  TGI: > 100 µM
IGROV1 ovarian
  TGI: > 100 µM
K-562 leukemia
  TGI: > 100 µM
KM12 colon
  TGI: > 100 µM
LOX IMVI melanoma
  TGI: > 100 µM
MALME-3M melanoma
  TGI: > 100 µM
MCF7 breast
  TGI: > 100 µM
MDA-MB-231 breast
  TGI: > 100 µM
MDA-MB-435
  TGI: > 100 µM
MDA-N
  TGI: > 100 µM
MOLT-4 leukemia
  TGI: > 100 µM
NCI-H226 lung
  TGI: > 100 µM
NCI-H23 lung
  TGI: > 100 µM
NCI-H460 lung
  TGI: > 100 µM
NCI-H522 lung
  TGI: > 100 µM
NCI/ADR-RES ovarian
  TGI: > 100 µM
OVCAR-3 ovarian
  TGI: > 100 µM
OVCAR-4 ovarian
  TGI: > 100 µM
OVCAR-5 ovarian
  TGI: > 100 µM
OVCAR-8 ovarian
  TGI: > 100 µM
PC-3 prostate
  TGI: > 100 µM
RPMI-8226 leukemia
  TGI: > 100 µM
SF-268 CNS
  TGI: > 100 µM
SF-539 CNS
  TGI: > 100 µM
SK-MEL-2 melanoma
  TGI: > 100 µM
SK-MEL-28 melanoma
  TGI: > 100 µM
SK-MEL-5 melanoma
  TGI: > 100 µM
SK-OV-3 ovarian
  TGI: > 100 µM
SN12C renal
  TGI: > 100 µM
SNB-19 CNS
  TGI: > 100 µM
SNB-75 CNS
  TGI: > 100 µM
SR leukemia
  TGI: > 100 µM
SW-620 colon
  TGI: > 100 µM
T-47D breast
  TGI: > 100 µM
TK-10 renal
  TGI: > 100 µM
U251 CNS
  TGI: > 100 µM
UACC-62 melanoma
  TGI: > 100 µM
UO-31 renal
  TGI: > 100 µM

## Cc1cnoc1NC1=CC(=O)C(=O)c2ccccc21
786-0 renal
  TGI: > 100 µM
A498 renal
  TGI: > 100 µM
A549 NSCLC
  TGI: 63.8 µM
ACHN renal
  TGI: > 100 µM
BT-549 breast
  TGI: > 100 µM
CAKI-1 renal
  TGI: > 100 µM
CCRF-CEM leukemia
  TGI: 44.6 µM
COLO 205 colon
  TGI: > 100 µM
DU-145 prostate
  TGI: 61.2 µM
EKVX NSCLC
  TGI: > 100 µM
HCT-116 colon
  TGI: 70.8 µM
HCT-15 colon
  TGI: > 100 µM
HOP-62 NSCLC
  TGI: > 100 µM
HOP-92 NSCLC
  TGI: > 100 µM
HS 578T breast
  TGI: > 100 µM
HT29 colon
  TGI: 90 µM
IGROV1 ovarian
  TGI: > 100 µM
K-562 leukemia
  TGI: 10.9 µM
KM12 colon
  TGI: > 100 µM
LOX IMVI melanoma
  TGI: > 100 µM
M14 melanoma
  TGI: > 100 µM
MALME-3M melanoma
  TGI: 9.81 µM
MCF7 breast
  TGI: 16.4 µM
MDA-MB-231 breast
  TGI: > 100 µM
MDA-MB-435
  TGI: 2.64 µM
MDA-N
  TGI: 3.01 µM
MOLT-4 leukemia
  TGI: 38.8 µM
NCI-H226 lung
  TGI: > 100 µM
NCI-H23 lung
  TGI: 32.7 µM
NCI-H460 lung
  TGI: > 100 µM
NCI-H522 lung
  TGI: > 100 µM
NCI/ADR-RES ovarian
  TGI: 70.9 µM
OVCAR-3 ovarian
  TGI: > 100 µM
OVCAR-4 ovarian
  TGI: > 100 µM
OVCAR-5 ovarian
  TGI: 55.9 µM
OVCAR-8 ovarian
  TGI: > 100 µM
PC-3 prostate
  TGI: > 100 µM
RPMI-8226 leukemia
  TGI: 50.3 µM
SF-268 CNS
  TGI: 94.3 µM
SF-295 CNS
  TGI: > 100 µM
SF-539 CNS
  TGI: 58.2 µM
SK-MEL-2 melanoma
  TGI: 10.5 µM
SK-MEL-28 melanoma
  TGI: > 100 µM
SK-MEL-5 melanoma
  TGI: 12 µM
SK-OV-3 ovarian
  TGI: > 100 µM
SN12C renal
  TGI: 3.53 µM
SNB-19 CNS
  TGI: 73.5 µM
SNB-75 CNS
  TGI: > 100 µM
SR leukemia
  TGI: > 100 µM
SW-620 colon
  TGI: 80.4 µM
T-47D breast
  TGI: > 100 µM
TK-10 renal
  TGI: > 100 µM
U251 CNS
  TGI: 13.9 µM
UACC-257 melanoma
  TGI: 49.3 µM
UACC-62 melanoma
  TGI: 29.9 µM
UO-31 renal
  TGI: 74.6 µM
